The target of series [1] is T1, Tyrosine-protein kinase BTK (Homo sapiens, UniProt Q06187). Description: Covalent inhibition of N-terminal GST-fused human BTK (2-659(end) amino acids) expressed in baculovirus expression system using FITC-AHA-EEPLYWSFPAKKK-NH2 as substrate incubated for 90 mins by microfluidic off-Chip Mobility Shift Assay.
Series [2] is described as follows: Intrinsic clearance in human liver microsomes at 1 uM in presence of NADPH measured up to 30 mins by LC-MS/MS analysis. As to conditions: read-out: CLH. Type of series: ADME, Microsome.
A short description of series [3]: Kinetic solubility of the compound. Type of series: physicochemical. As to conditions: read-out: Kinetic_solubility.
Series [4] can be described thus: Apparent permeability across apical to basolateral side in human Caco2 cells at 1 uM incubated for 2 hrs by LC-MS/MS analysis. Format: ADME, cell-based. The conditions noted are these: Caco-2. Background: Caco-2 monolayers are a common model of the intestinal barrier.
Series [5] deals with Epidermal growth factor receptor (Homo sapiens, UniProt P00533). Description: Inhibition of N-terminal GST-tagged human EGFR (696 to end aminoacids) expressed in baculovirus infected Sf21 cells.
Chain of Epidermal growth factor receptor (P00533 whole entry): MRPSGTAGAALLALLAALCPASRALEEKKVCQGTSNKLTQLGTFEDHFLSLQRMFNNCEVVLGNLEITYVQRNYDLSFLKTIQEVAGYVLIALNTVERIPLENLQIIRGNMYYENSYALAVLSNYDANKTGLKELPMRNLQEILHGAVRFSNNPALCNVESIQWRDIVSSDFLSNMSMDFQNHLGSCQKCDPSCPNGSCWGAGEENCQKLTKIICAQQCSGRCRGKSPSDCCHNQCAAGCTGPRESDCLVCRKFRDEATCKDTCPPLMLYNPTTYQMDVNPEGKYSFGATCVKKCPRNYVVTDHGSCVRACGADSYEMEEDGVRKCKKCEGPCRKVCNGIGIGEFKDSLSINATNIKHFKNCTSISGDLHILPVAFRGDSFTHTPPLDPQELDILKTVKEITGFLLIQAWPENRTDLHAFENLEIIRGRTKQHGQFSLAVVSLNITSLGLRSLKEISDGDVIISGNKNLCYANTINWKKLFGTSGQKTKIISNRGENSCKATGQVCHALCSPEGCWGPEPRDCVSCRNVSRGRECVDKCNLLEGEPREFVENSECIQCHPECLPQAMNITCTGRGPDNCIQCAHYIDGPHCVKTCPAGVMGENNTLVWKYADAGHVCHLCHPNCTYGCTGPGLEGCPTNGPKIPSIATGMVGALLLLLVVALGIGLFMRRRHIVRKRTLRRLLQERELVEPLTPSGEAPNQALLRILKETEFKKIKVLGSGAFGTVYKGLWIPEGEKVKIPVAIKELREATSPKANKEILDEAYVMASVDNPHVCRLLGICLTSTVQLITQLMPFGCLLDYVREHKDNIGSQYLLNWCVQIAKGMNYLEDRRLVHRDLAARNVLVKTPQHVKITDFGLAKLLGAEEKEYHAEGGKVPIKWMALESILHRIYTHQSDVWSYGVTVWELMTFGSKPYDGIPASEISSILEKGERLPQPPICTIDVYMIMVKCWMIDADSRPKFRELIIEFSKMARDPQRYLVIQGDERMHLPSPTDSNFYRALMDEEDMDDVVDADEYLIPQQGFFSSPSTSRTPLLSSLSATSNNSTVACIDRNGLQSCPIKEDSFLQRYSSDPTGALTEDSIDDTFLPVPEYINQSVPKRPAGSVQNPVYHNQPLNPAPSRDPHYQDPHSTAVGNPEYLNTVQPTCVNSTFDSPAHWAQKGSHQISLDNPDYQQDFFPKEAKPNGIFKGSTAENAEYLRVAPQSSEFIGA
Series [6] has as its target hERG (KCNH2) (Homo sapiens, UniProt Q12809). Description: Inhibition of human ERG expressed in HEK293 cells at 10 uM at -80 mV holding potential by […] relative to control. As to conditions: HEK293 cells expressing human ERG. Format: cell-based.
Series [7] in a line: Stability of the compound in plasma (unknown origin) assessed as compound remaining at 4 hrs. Type of series: ADME, cell-free. The conditions noted are these: read-out: Stability.
Series [8] has as its target Voltage-gated inwardly rectifying potassium channel KCNH2 (Homo sapiens, UniProt Q12809). Description: Inhibition of human ERG expressed in HEK293 cells at -80 mV holding potential by […]. Type of series: cell-based.
Series [9] concerns the target T1, Tyrosine-protein kinase BTK. Description: Inhibition of BTK in human PBMC cells assessed as reduction in anti-IgM-stimulated CD69 expression on B cells preincubated for 60 mins followed by goat F(ab')2 anti-human IgM stimulation and measured after overnight incubation by flow cytometry. Format: cell-based. On the technique in general: A flow cytometer gives signals particle by particle.

Converted amounts (≈) assume the structure as drawn.

Chain of hERG (KCNH2) (Q12809 whole entry): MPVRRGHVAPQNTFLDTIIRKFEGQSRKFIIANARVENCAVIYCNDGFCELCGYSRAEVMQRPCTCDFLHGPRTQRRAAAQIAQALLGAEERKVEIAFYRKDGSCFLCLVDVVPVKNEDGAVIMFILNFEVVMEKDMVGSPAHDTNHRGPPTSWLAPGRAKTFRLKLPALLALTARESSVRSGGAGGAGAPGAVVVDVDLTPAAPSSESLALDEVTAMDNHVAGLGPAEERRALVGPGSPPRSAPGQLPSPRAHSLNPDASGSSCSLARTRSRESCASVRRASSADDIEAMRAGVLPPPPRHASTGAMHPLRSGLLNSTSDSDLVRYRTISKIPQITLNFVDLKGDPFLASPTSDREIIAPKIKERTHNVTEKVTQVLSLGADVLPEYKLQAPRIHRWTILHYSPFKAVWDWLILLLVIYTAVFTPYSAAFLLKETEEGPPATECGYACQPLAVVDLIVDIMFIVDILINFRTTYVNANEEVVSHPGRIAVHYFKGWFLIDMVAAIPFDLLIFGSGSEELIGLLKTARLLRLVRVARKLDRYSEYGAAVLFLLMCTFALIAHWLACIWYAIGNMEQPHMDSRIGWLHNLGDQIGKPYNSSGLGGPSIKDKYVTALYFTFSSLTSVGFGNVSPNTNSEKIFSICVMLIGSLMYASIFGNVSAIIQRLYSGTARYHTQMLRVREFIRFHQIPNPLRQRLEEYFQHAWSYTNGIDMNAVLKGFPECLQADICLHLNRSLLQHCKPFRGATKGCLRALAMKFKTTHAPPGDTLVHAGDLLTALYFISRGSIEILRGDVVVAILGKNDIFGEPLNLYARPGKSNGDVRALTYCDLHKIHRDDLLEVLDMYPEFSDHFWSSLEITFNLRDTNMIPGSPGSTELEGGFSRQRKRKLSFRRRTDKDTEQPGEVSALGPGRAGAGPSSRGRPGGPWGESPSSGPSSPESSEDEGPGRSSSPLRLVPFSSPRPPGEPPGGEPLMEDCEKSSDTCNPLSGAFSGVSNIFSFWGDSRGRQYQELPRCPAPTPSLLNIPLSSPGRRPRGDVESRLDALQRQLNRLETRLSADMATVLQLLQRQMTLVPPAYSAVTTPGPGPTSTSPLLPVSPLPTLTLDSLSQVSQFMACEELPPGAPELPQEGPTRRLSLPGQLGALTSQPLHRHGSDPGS
T1 sequence (Q06187 whole entry, the tested form may be a part): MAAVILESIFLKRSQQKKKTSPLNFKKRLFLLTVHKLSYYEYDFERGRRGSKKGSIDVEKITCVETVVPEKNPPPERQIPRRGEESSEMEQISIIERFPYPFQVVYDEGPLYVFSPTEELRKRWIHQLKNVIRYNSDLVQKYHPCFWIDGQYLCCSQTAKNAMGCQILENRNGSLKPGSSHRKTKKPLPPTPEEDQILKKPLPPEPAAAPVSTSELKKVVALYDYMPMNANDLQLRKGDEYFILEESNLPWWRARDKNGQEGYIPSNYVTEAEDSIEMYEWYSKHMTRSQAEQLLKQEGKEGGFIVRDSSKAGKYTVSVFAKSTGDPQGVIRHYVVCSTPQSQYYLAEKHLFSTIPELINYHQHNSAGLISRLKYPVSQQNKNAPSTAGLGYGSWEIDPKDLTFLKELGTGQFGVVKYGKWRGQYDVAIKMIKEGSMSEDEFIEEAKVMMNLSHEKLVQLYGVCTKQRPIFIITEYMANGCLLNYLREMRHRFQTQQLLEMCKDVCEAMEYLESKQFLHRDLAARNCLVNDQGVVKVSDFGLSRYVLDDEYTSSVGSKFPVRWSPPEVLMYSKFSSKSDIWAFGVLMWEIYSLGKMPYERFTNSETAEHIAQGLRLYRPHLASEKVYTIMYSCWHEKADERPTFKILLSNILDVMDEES
Chain of Voltage-gated inwardly rectifying potassium channel KCNH2 (Q12809 whole entry): as the sequence (Q12809 whole entry) above

On to `C=CC(=O)N1CCC(CNc2ncnc(N)c2-c2cc(F)c(Oc3ccccc3)cc2F)CC1`, for which the IC50 (commonly the midpoint of a concentration-inhibition curve) in [1] was 160 nM. The microsomal CLint at 1 µM in series [2] was determined as 143 µL/min/mg.

`C=CC(=O)Nc1cccc(Oc2ccncc2-c2ccc(Oc3ccccc3)cc2)c1`: the 50% inhibitory concentration (IC50) in series [1] was found to be 44 nM.

Regarding `C=CC(=O)N[C@@H]1CC[C@H](Nc2ncnc(N)c2-c2ccc(Oc3ccccc3)cc2)C1` (relative stereo), in series [3], the solubility kinetic amounted to 158 µM (≈ 65.6 µg/mL). Further, the Papp A→B (usually the apparent permeability from the apical to the basolateral side of a cell layer) at 2 h, 1 µM in [4] came out at 23.6 ×10⁻⁶ cm/s. Further, in [2], the microsomal CLint at 1 µM worked out at 202 µL/min/mg.

In series [5], `C=CC(=O)N1CCCC(Nc2ncnc(N)c2-c2ccc(Oc3ccccc3)cc2)C1` (single isomer, unassigned) gave a 50% inhibitory concentration (IC50) of 550 nM. Also, in series [6], the inhibition (usually how much of the control response was suppressed) at 10 µM worked out at 43%. In addition, in series [2], the microsomal CLint at 1 µM is 598 µL/min/mg.

As to `C=CC(=O)N1CCC(CNc2ncnc(N)c2-c2ccc(Oc3cccc(F)c3)cc2)CC1`, the microsomal CLint at 1 µM in series [2] amounted to 199 µL/min/mg.

`C#CC(=O)N1CCC(CNc2ncnc(N)c2-c2ccc(Oc3ccccc3)cc2)CC1`: in series [7], the remaining at 4 h was 34%. Moreover, in series [1], the IC50 was 0.2 nM.

`C=CC(=O)N1CC2(CC(Nc3ncnc(N)c3-c3ccc(Oc4ccccc4)cc3)C2)C1`: the solubility kinetic in [3] amounted to 153 µM (≈ 65.4 µg/mL). The Ki (usually a measure of affinity in units of concentration, obtained from inhibition or displacement) in [8] turned out to be 780 nM. The Papp A→B at 2 h, 1 µM in [4] is 9.3 ×10⁻⁶ cm/s. Further, the microsomal CLint at 1 µM in series [2] was found to be 777 µL/min/mg.

Take `C=CC(=O)N1CCC(CNc2ncnc(N)c2-c2ccc(Oc3ccncc3)cc2)CC1`: in [1], the IC50 is 730 nM. The microsomal CLint at 1 µM in [2] turned out to be 688 µL/min/mg.

Compound `C=CC(=O)Nc1cccc(Oc2ncncc2-c2ccc(Oc3ccccc3)cc2)c1` came in with an inhibition at 10 µM in [6] of 46%.

Regarding `C=CS(=O)(=O)N1CCC(CNc2ncnc(N)c2-c2ccc(Oc3ccccc3)cc2)CC1`, in series [7], the remaining at 4 h was 16%.

In the case of `C=CC(=O)Nc1cccc(-c2c(N)ncnc2Nc2ccc(Oc3ccccc3)cc2)c1`, the IC50 in series [5] amounted to 1 nM; in [1], 8 nM.

`C=CC(=O)N[C@@H]1CCC[C@H](Nc2ncnc(N)c2-c2ccc(Oc3ccccc3)cc2)C1` (relative stereo): the solubility kinetic in series [3] turned out to be 134 µM (≈ 57.6 µg/mL). For the same compound, the affinity in series [8], expressed as Ki, was 1800 nM. For the same compound, the Papp A→B at 2 h, 1 µM in series [4] was determined as 11.9 ×10⁻⁶ cm/s. The microsomal CLint at 1 µM in [2] came out at 27 µL/min/mg.

Turning to `C=CC(=O)N1CCC(CNc2ncnc(N)c2-c2ccc(Oc3ccccc3)cc2C(F)(F)F)CC1`, the half-maximal inhibitory concentration (IC50) in series [1] is above 100000 nM.

Take `C=CC(=O)N1CCC(CNc2ncnc(N)c2-c2ccc(Oc3ccc(F)cc3)cc2)CC1`: in series [1], the IC50 is 150 nM. For the same compound, the microsomal CLint at 1 µM in series [2] was determined as 143 µL/min/mg.

Regarding `C=CC(=O)N[C@H]1CC[C@@H](Nc2ncnc(N)c2-c2ccc(Oc3ccccc3)cc2)CC1`, in series [3], the solubility kinetic was determined as 154 µM (≈ 66.1 µg/mL). Further, the Papp A→B at 2 h, 1 µM in series [4] worked out at 10 ×10⁻⁶ cm/s. In addition, the microsomal CLint at 1 µM in series [2] amounted to 41 µL/min/mg.

Consider `C=CC(=O)N1CCC(Nc2ncnc(N)c2-c2ccc(Oc3ccccc3)cc2)C1` (single isomer, unassigned), for which the solubility kinetic in series [3] stood at 160 µM (≈ 64.2 µg/mL). Also, the inhibition at 10 µM in series [6] was 40%. Besides, the Papp A→B at 2 h, 1 µM in [4] is 25.2 ×10⁻⁶ cm/s. In series [2], the microsomal CLint at 1 µM came out at 77 µL/min/mg.

In the case of `Nc1ncnc(NCC2CCN(C(=O)C3=CCC3)CC2)c1-c1ccc(Oc2ccccc2)cc1`, the IC50 in [9] and in series [1] was 290 nM each time.

For the compound `C=CC(=O)NC1CCCN(c2ncnc(N)c2-c2ccc(Oc3ccccc3)cc2)C1` (centres undefined), the IC50 in [1] was determined as 1500 nM.

As to `Nc1ncnc(NCC2CCN(C(=O)CCl)CC2)c1-c1ccc(Oc2ccccc2)cc1`, the remaining at 4 h in series [7] worked out at 49%.

`C=CC(=O)N1CCC(Nc2ncnc(N)c2-c2ccc(Oc3ccccc3)cc2)CC1`: the IC50 in series [1] was determined as 1510 nM.

As for `C=CC(=O)N1CCC(CNc2ncnc(N)c2-c2ccc(Oc3ccc(C)cc3)cc2)CC1`, in [1], the IC50 is 18 nM. In series [2], the microsomal CLint at 1 µM was 145 µL/min/mg.

As for `C=CC(=O)N1CCC(CNc2ncnc(N)c2-c2ccc(C(=O)Nc3ccccc3)cc2)CC1`, the concentration for half-maximal inhibition (IC50) in series [1] was 1200 nM.
